Test results reported in EP4782453A1 (Beyang Therapeutics Co., Ltd., priority 2023, dated 2025).

Molecular target: T1, Menin-MLL (Homo sapiens, UniProt O00255)
T1 construct: His-Menin (M1-L615 end); purchased BIORTUS BP9210
T1 sequence (O00255 1-615 isoform O00255-1): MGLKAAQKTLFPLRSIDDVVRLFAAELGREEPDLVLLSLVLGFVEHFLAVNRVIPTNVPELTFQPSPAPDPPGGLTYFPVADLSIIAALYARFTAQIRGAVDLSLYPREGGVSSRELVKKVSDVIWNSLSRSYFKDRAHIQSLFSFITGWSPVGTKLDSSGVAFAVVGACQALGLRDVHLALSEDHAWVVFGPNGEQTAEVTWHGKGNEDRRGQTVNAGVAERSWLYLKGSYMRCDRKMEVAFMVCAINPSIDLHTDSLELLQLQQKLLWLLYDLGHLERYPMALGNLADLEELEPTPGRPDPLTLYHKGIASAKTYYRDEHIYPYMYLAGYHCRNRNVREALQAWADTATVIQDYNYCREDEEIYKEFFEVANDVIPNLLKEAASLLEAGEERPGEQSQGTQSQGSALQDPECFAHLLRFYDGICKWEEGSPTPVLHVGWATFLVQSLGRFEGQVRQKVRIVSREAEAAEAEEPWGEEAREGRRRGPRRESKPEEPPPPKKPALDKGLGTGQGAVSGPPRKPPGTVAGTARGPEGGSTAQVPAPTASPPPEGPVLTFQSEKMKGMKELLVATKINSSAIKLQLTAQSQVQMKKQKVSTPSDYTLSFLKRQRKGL
Assay: Inhibitory activity against Menin-MLL binding (fluorescence polarization)
Conditions: Menin-MLL IC50, fluorescence polarization; 150 nM His-Menin, 15 nM FITC-MLL; 25°C for 60 min
Procedure: • His-Menin (M1-L615 end), purchased from BIORTUS, Catalog Number: BP9210; and • FITC-MLL4-43, purchased from GenScript, Catalog Number: C491HFF190-3/PE1324.
In a 10 µL reaction solution (20 mM HEPES, pH 7.5, 50 mM NaCl, 1 mM DTT, 0.01% BSA) containing any compound from the examples, 150 nM His-Menin was added to a 384-well plate (Corning, Model: 4514). Each concentration was set up in duplicate wells. After centrifugation at 1000 RPM for 1 min, the plate was incubated at 25°C for 15 min. Then, 15 nM […] (20 mM HEPES, pH 7.5, 50 mM NaCl, 1 mM DTT, 0.01% BSA) was added to a 384-well plate. After centrifugation at 1000 RPM for 1 min, the reaction proceeded at 25°C for 60 min. Changes in fluorescence polarization were measured using a plate reader (PerkinElmer, Envision 2104). Based on the measured signals, the binding inhibition rate of the compound at each concentration was calculated, and the IC50 (half-maximal inhibitory concentration) of the compound was determined using statistical analysis software GraphPad Prism (GraphPad Software, Inc.) by means of a nonlinear fitting formula: 4-Parameter Logistic Model or Sigmoidal Dose-Response Model: Y = Bottom + (Top−Bottom)/(1 + 10^((LogIC50−X) × Hill Slope)), [formula] in which X indicates the logarithm of compound concentration, Y indicates a fluorescence polarization mP value, and Top and Bottom indicate the maximum and minimum readouts of fluorescence polarization mP values. Table 1: Inhibitory Activity of Compounds Against Menin-MLL Binding

| Compound | IC50 [nM] |
| --- | --- |
| CCS(=O)(=O)N[C@H]1CC[C@H](C(C)N2CC(c3cc(-c4ccc(F)cc4C(=O)N4CCOC[C@H]4C)c4cnn(C)c4c3)C2)CC1 (stereo partly drawn) [Example 178, N-[(1r,4r)-4-{1-[3-(4-{4-fluoro-2-[(3R)-3-methylmorpholin-4-carbonyl]phenyl}-1-methyl-1H-indazol-6-yl)azacyclobutan-1-yl]ethyl}cyclohexyl]ethan-1-sulfonamide] | 115 |
| CC[C@@H](C)[C@H](NC)C(=O)N1CC(c2cc(-c3ccc(F)cc3C(=O)N(CC)C(C)C)c3c(F)nc(C)n3c2)C1 [Example 318] | 39 |
| CCN(C(=O)c1cc(F)ccc1-c1cc(C2CN(C(=O)C3NC4CCC3CC4)C2)cn2c(C)nc(F)c12)C(C)C [Example 107, N-ethyl-5-fluoro-2-(1-fluoro-3-methyl-6-{1-[(1R,3S,4S)-2-azabicyclo[2.2.2]octan-3-carbonyl]azacyclobutan-3-yl}imidazo[1,5-a]pyridin-8-yl)-N-(isopropyl)benzamide] | 4.5 |
| CCS(=O)(=O)N[C@H]1CC[C@H](CN2CC(c3cc(-c4ccc(F)cc4C(=O)N4CCOC[C@H]4C)c4cnn(C)c4c3)C2)CC1 [Example 159, N-[(1r,4r)-4-{[3-(4-{4-fluoro-2-[(3R)-3-methylmorpholin-4-carbonyl]phenyl}-1-methyl-1H-indazol-6-yl)azacyclobutan-1-yl]methyl}cyclohexyl]ethan-1-sulfonamide] | 69 |

Same assay, conditions: fluorescence polarization; 150 nM His-Menin, 15 nM FITC-MLL; 25°C for 60 min; read-out: Menin-MLL IC50

| Compound | IC50 [nM] |
| --- | --- |
| CCN(C(=O)c1cc(F)ccc1-c1cc(C2(O)CN([C@@H](CCCN3CCN(CCO)CC3)C(C)C)C2)cn2c(C)ncc12)C(C)C [Example 464-2, N-ethyl-5-fluoro-2-(6-{3-hydroxyl-1-[(3S)-6-[4-(2-hydroxylethyl)piperazin-1-yl]-2-methylhexan-3-yl]azacyclobutan-3-yl}-3-methylimidazo[1,5-a]pyridin-8-yl)-N-(isopropyl)benzamide] | 190 |
| CNC(=O)N1CCC(CN2CC(c3cc(-c4ccc(F)cc4C(=O)N4CCOC[C@H]4C)c4cnn(C)c4c3)C2)CC1 [Example 172] | 98 |
| CCN(C(=O)c1cc(F)ccc1-c1cc(C2CN(C(CCC3(O)COC3)C(C)C)C2)cn2c(C)ncc12)C(C)C (centres unmarked) [Example 447, N-ethyl-5-fluoro-2-(6-{1-[1-(3-hydroxyloxacyclobutan-3-yl)-4-methylpentan-3-yl]azacyclobut-3-yl}-3-methylimidazo[1,5-a]pyridin-8-yl)-N-(isopropyl)benzamide] | 25 |
| Cc1ncc2c(-c3ccc(F)cc3C(=O)N(C)C(C)C)cc(C3CN([C@@H](CCCN4CCN(CCO)CC4)C(C)C)C3)cn12 [Example 448-1] | 120 |
| CCN(C(=O)c1cc(F)ccc1-c1cc(N2CCN(C(=O)[C@H]3N[C@@H]4CC[C@H]3C4)CC2)cn2cncc12)C(C)C [Compound 40, 2-(6-{4-[(1R,3S,4S)-2-azabicyclo[2.2.1]heptan-3-carbonyl]piperazin-1-yl}imidazo[1,5-a]pyridin-8-yl)-N-ethyl-5-fluoro-N-(isopropyl)benzamide] | 83 |
| CCS(=O)(=O)N[C@H]1CC[C@H](CN2CC(c3cc(-c4ccc(F)cc4C(=O)N4CCOC[C@@H]4C)c4cnc(C)n4c3)C2)CC1 [Example 135] | 102 |
| CCN(C(=O)c1cc(F)ccc1-c1cc(C2CN(C(CN3CCC(OC)CC3)C(C)C)C2)cn2c(C)ncc12)C(C)C (centres unmarked) [Example 444] | 45 |
| Cc1nc(F)c2c(-c3ccc(F)cc3C(=O)N3CCOC[C@H]3C)cc(C3CN([C@@H](C)C4CCN(C(=O)C5CC5)CC4)C3)cn12 [Example 299] | 15 |
| CO[C@@H]1CN(CCC[C@H](C(C)C)N2CC(c3cc(-c4ccc(F)cc4C(=O)N4CCOC[C@H]4C)c4c(F)nc(C)n4c3)C2)C[C@H]1O [Example 291-1, (3R,4R)-1-[(4R)-4-[3-(1-fluoro-8-{4-fluoro-2-[(3R)-3-methylmorpholin-4-carbonyl]phenyl}-3-methylimidazo[1,5-a]pyridin-6-yl)azacyclobutan-1-yl]-5-methylhexyl]-4-methoxypyrrolidin-3-ol] | 6 |
| Cc1nc(F)c2c(-c3ccc(F)cc3C(=O)N3CCOC[C@H]3C)cc(C3CN([C@@H](C)C4CCN(C(=O)CC(F)F)CC4)C3)cn12 [Example 304] | 8 |
| CCN(C(=O)c1cc(F)ccc1-c1cc(C2CN([C@H](CCCN3CCN[C@H](CF)C3)C(C)C)C2)cn2c(C)ncc12)C(C)C [Example 501] | 1.6 |
| CCS(=O)(=O)N[C@H]1CC[C@H](CN2CC(c3cc(-c4ccc(F)cc4C(=O)N4CCC[C@H]4C)c4cnn(C)c4c3)C2)CC1 [Example 167] | 57 |
| CNC(=O)N1CCC([C@@H](C)N2CC(c3cc(-c4ccc(F)cc4C(=O)N4CCOC[C@H]4C)c4c(F)nc(C)n4c3)C2)CC1 [Example 264-1] | 116 |
| CCN(C(=O)c1cc(F)ccc1-c1cc(C2CN(C(CCCN3C[C@H]4C[C@@H]3CO4)C3(C)COC3)C2)cn2c(C)ncc12)C(C)C (stereo partly drawn) [Example 485, N-ethyl-5-fluoro-2-(3-methyl-6-{1-[1-(3-methyloxacyclobutan-3-yl)-4-[(1R,4R)-2-oxa-5-azabicyclo[2.2.1]heptan-5-yl]butyl]azacyclobut-3-yl}imidazo[1,5-a]pyridin-8-yl)-N-(isopropyl)benzamide] | 42 |
| CCN(C(=O)c1cc(F)ccc1-c1cc(C2CN([C@H](CCCN3CCN(C4(CC#N)COC4)CC3)C(C)C)C2)cn2c(C)ncc12)C(C)C [Example 490, 2-(6-{1-[(3R)-6-{4-[3-(cyanomethyl)oxacyclobutan-3-yl]piperazin-1-yl}-2-methylhexan-3-yl]azacyclobutan-3-yl}-3-methylimidazo[1,5-a]pyridin-8-yl)-N-ethyl-5-fluoro-N-(isopropyl)benzamide] | 2.9 |
| CC(C)CS(=O)(=O)N1CCC(CN2CC(c3cc(-c4ccc(F)cc4C(=O)N4CCOC[C@H]4C)c4cnn(C)c4c3)C2)CC1 [Example 176] | 424 |
| CCN(C(=O)c1cc(F)ccc1-c1cc(C2CN([C@H](C)C3CCN(C(C)=O)CC3)C2)cn2c(C)nc(F)c12)C(C)C [Example 288-1] | 11 |
| CCN(C(=O)c1cc(F)ccc1-c1cc(C2CN([C@@H](C)C3CCN(C(C)=O)CC3)C2)cn2c(C)ncc12)C(C)C [Example 281-1] | 9 |
| CCN(C(=O)c1cc(F)ccc1-c1cc(C2(O)CN([C@H](CCCN3CCN(CCO)CC3)C(C)C)C2)cn2c(C)ncc12)C(C)C [Example 464-1, N-ethyl-5-fluoro-2-(6-{3-hydroxyl-1-[(3R)-6-[4-(2-hydroxylethyl)piperazin-1-yl]-2-methylhexan-3-yl]azacyclobutan-3-yl}-3-methylimidazo[1,5-a]pyridin-8-yl)-N-(isopropyl)benzamide] | 15 |
| CCN(C(=O)c1cc(F)ccc1-c1cc(C2CN([C@H](CCCN3CCN(S(C)(=O)=O)CC3)C(C)C)C2)cn2c(C)ncc12)C(C)C [Example 397] | 4.2 |
| CCN(C(=O)c1cc(F)ccc1-c1cc(C2CN([C@H](CN3CCN(CCF)CC3)C(C)C)C2)cc2c1cnn2C)C(C)C [Example 424, N-ethyl-5-fluoro-2-(6-{1-[(2S)-1-[4-(2-fluoroethyl)piperazin-1-yl]-3-methylbutan-2-yl]azacyclobutan-3-yl}-1-methyl-1H-indazol-4-yl)-N-(isopropyl)benzamide] | 78 |
| CCN(C(=O)c1cc(F)ccc1-c1cc(C2CN([C@@H](C)C3CCN(C(C)=O)CC3)C2)cn2c(C)nc(F)c12)C(C)C [Example 288-2] | 2 |
| CCN(C(=O)c1cc(F)ccc1-c1cc(C2CN(C(CC[C@@H]3COCCN3CCO)C(C)C)C2)cn2c(C)ncc12)C(C)C (stereo partly drawn) [Example 469, N-ethyl-5-fluoro-2-[6-(1-{1-[(3R)-4-(2-hydroxyethyl)morpholin-3-yl]-4-methylpentan-3-yl}azacyclobutan-3-yl)-3-methylimidazo[1,5-a]pyridin-8-yl]-N-(isopropyl)benzamide] | 11 |
| COC1(C(=O)N2CCC(CN3CC(c4cc(-c5ccc(F)cc5C(=O)N5CCOC[C@H]5C)c5c(F)nc(C)n5c4)C3)CC2)CC1 [Example 262] | 257 |
| CCCC(=O)N1CCC(C(C)N2CC(c3cc(-c4ccc(F)cc4C(=O)N4CCOC[C@H]4C)c4cnc(C)n4c3)C2)CC1 (some centres unmarked) [Example 320] | 12 |
